Literature values in patent publication US12508269B2, “Parenteral dosage form of carboplatin” (priority 2018, dated 2025).

[NH2][Pt]1([NH2])[O]C(=O)C2(CCC2)C(=O)[O]1 [carboplatin, diammine [1,1-cyclobutanedicarboxylato(2-)-0, 0′]]
time for which reconstituted or diluted aqueous solutions were stable (Myres et al, refrigeration in the dark or room temperature exposed to fluorescent light): seven | time for which reconstituted solutions are stable (pack insert of Paraplatin and references): 8 h
